# What was measured:
# [1] = system: keratin and vimentin/desmin IF networks in PtK2, BHK21 and mouse 3T3 fibroblasts; assay: Microinjection of the 1A peptide into cells, indirect immunofluorescence and confocal microscopy; assay type: cell-based, kangaroo rat, baby hamster
# Protocol: The synthetic peptide corresponding to the keratin 1 chain 1A region (SEQ ID NO: 2) was microinjected into PtK2, BHK21 and mouse 3T3 fibroblasts according to the procedure of Vikstrom et al. (Proc. Natl. Acad. Sci. U.S.A., (1989) 86: 549-553; Methods Enzymol., (1991) 176: 506-525). BHK-21 cells contain type III filaments composed of vimentin and desmin, while 3T3 cells contain only vimentin. PtK2 cells contain mainly keratin. Briefly, peptides in 20 mM Tris-HCl. pH 8.5, 0.17M NaCl, 3 mM KCl were clarified by centrifugation for 30 min at 100,000×g immediately prior to microinjection. Protein concentrations in samples were determined by the method of Bradford (Anal. Biochem., 72: 248-254 (1976)). Micropipettes (W-P instruments) were prepared on a micropipette puller (Industrial Science Associates). Microinjections were monitored with a Leitz Diavert phase-contrast microscope fitted with a Leitz micromanipulator according to standard techniques (Graessmann and Graessmann, (1976) Proc. Natl. Acad. Sci. U.S.A., 73: 366-370; Kreis and Birchmeier, (1982) Int. Rev. Cytol., 75: 209-227).
# (§1) Microinjected cells were prepared for indirect immunofluorescence and confocal microscopy as described (Yang et al., (1985) J. Cell Biol., 100: 620-631). IF disassembly was assessed by immunofluorescence using antibodies against IFs. […] At 1 mg/ml peptide, cells rounded up completely within 30 min, respreading and regaining their shape after a few hours. […] The rounded-up cells contained spots of fluorescence indicating a rather complete disruption of IF structure. Recovery occurred within 3-4 hours indicating a need to maintain a constant supply of peptide to maintain the disassembled state of the IF network. The 1A peptide was soluble at 5-10 mg/ml, although higher concentrations may also be obtainable.
# [2] = system: preformed keratin IFs; assay: Disassembly of preformed keratin IFs by synthetic peptides (light scattering, electron microscopy); assay type: biochemical, human
# Protocol: In vitro filament assembly assays (1-1.5 mg/ml) were performed by dialysis for 2 hours each into decreasing concentrations of urea (6, 4, 2, 1 and 0M) containing 5 mM Tris-HCl, pH 7.6, 1 mM EDTA, 1 mM dithiothreitol. […]. Light scattering was measured at 310 nm in a Beckman DU65 spectrophotometer. Synthetic peptides (1-30 μl of a 0.5-2 mg/ml solution) were added to 1 ml samples of keratin filaments, incubated at 37° C., and filament assembly was measured by light scattering. […] Samples of these reactions were also collected for visualization by electron microscopy and stopped by negative staining with freshly-prepared 0.7% uranyl acetate.
# Peptides corresponding to the H1, beginning of 1A, and full-length 1A regions (SEQ ID NO: 1-3) of the human keratin 1 chain were individually mixed with preformed keratin IFs in vitro at a 1:1 molar ratio.
# [3] = Solubility of the peptide; assay type: physicochemical
# Protocol: as §1
substance,measurement,setting,value
1A*: the first 18 amino acids of SEQ ID NO: 2 (1A peptide) (REQIKSLNNQFASFIDKV),IF structure by immunofluorescence during rounding,[1]; 1 mg/ml peptide,disorganized arrays of IFs
same,time to complete rounding up of cells,[1]; 1 mg/ml peptide,≤ 30 min
same,alteration of IF networks,[1]; 2-5 mg/ml peptide,very significant alterations in both the keratin and vimentin/desmin IF networks
same,time to recovery,[1]; 2-5 mg/ml peptide,3 to 4 h
same,overall cell shape,"[1]; about 0.5 mg/ml peptide microinjected, after 15-20 min",altered slightly due to the partial rounding up
same,overall IF structure by immunofluorescence,"[1]; about 0.5 mg/ml peptide, 30 min post-injection",no significant changes in overall IF structure
same,reversibility of disassembly,[2]; 1:1 molar ratio,reversible upon removal of the peptide
same,time to disassembly of preformed IFs down to single coiled-coil molecules,"[2]; 1:1 molar ratio peptide to preformed keratin IFs, light scattering and electron microscopy",≤ 30 min
same,solubility,[3],5000 to 10000 µg/mL
